According to paper PMC4388869 (Journal of neuroimmune pharmacology : the official journal …, 2015):
Several values for one entry are separate records, joined by “and”; a condition that tells them apart may be missing. Equal entries are not always repeated.

Legend:
Y470H-hDAT = Y470H-hDAT (Homo sapiens, UniProt Q01959, Y470H); test: Basal substrate efflux assay, CHO cells with Y470H-hDAT; type: cell-based
Y470F-hDAT [1] = biological target: T1, Y470F-hDAT (Homo sapiens, UniProt Q01959, Y470F); test: Basal substrate efflux assay, CHO cells with Y470F-hDAT; type: cell-based
Y470A-hDAT [2] = biological target: T2, Y470A-hDAT (Homo sapiens, UniProt Q01959, Y470A); type: cell-based
K92M-hDAT [3] = biological target: T3, K92M-hDAT (Homo sapiens, UniProt Q01959, K92M); test: Basal substrate efflux assay, CHO cells with K92M-hDAT; type: cell-based
Y88F-hDAT [4] = biological target: T4, Y88F-hDAT (Homo sapiens, UniProt Q01959, Y88F); type: cell-based
Y470F-hDAT [5] = biological target: T1, Y470F-hDAT; type: cell-based
K92M-hDAT [6] = biological target: T3, K92M-hDAT; type: cell-based
Y470A-hDAT [7] = biological target: T2, Y470A-hDAT; test: Basal substrate efflux assay, CHO cells with Y470A-hDAT; type: cell-based
Y88F-hDAT [8] = biological target: T4, Y88F-hDAT; test: Basal substrate efflux assay, CHO cells with Y88F-hDAT; type: cell-based
WT hDAT [9] = biological target: T5, WT hDAT (Homo sapiens, UniProt Q01959); test: Basal substrate efflux assay, CHO cells with WT hDAT; type: cell-based; conditions: preloading [3H]MPP+ 5 nM, 30 min
WT hDAT [10] = biological target: T5, WT hDAT; test: [3H]WIN 35,428 binding assay, WT hDAT; conditions: ZnCl2 10 µM, CHO cells
K92M-hDAT [11] = biological target: T3, K92M-hDAT; test: [3H]WIN 35,428 binding assay, K92M-hDAT; conditions: ZnCl2 10 µM, CHO cells
Y470A-hDAT [12] = biological target: T2, Y470A-hDAT; test: [3H]WIN 35,428 binding assay, Y470A-hDAT; conditions: ZnCl2 10 µM, CHO cells
Y88F-hDAT [13] = biological target: T4, Y88F-hDAT; test: [3H]WIN 35,428 binding assay, Y88F-hDAT; conditions: ZnCl2 10 µM, CHO cells
WT hDAT [14] = biological target: T5, WT hDAT; type: cell-based; conditions: ZnCl2 10 µM, CHO cells
Y470F-hDAT [15] = biological target: T1, Y470F-hDAT; test: [3H]WIN 35,428 binding assay, Y470F-hDAT; conditions: ZnCl2 10 µM, CHO cells
[16] = preloading 0.05 µM [3H]DA, 20 min, CHO cells
[17] = transfected PC12 cells (Fig. 4 legend: CHO), room temperature, 8 min
[18] = preloading [3H]MPP+ 5 nM, 30 min, CHO cells

T2 sequence (Q01959 whole entry Y470A): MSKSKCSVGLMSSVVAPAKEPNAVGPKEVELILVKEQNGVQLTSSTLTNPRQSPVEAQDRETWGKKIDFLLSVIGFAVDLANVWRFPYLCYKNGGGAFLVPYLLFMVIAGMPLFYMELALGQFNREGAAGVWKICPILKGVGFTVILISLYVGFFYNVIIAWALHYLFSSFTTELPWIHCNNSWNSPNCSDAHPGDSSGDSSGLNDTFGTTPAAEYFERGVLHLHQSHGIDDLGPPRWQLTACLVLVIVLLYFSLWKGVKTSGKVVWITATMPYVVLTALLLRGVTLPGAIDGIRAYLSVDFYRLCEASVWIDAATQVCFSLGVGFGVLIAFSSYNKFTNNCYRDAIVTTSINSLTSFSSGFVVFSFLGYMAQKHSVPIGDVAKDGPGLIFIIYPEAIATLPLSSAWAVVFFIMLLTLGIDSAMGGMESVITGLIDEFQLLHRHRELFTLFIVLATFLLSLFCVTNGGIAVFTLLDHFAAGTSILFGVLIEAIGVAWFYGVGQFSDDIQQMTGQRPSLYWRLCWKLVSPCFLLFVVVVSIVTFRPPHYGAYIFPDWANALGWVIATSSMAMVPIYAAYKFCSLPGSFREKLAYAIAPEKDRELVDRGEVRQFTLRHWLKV
T3 sequence (Q01959 whole entry K92M): as the sequence (Q01959 whole entry Y470A) above, with K92M, A470Y counted along it
T1 sequence (Q01959 whole entry Y470F): as the sequence (Q01959 whole entry Y470A) above, with A470F counted along it
Chain of Y470H-hDAT (Q01959 whole entry Y470H): as the sequence (Q01959 whole entry Y470A) above, with A470H counted along it
T5 sequence (Q01959 whole entry): as the sequence (Q01959 whole entry Y470A) above, with A470Y counted along it
T4 sequence (Q01959 whole entry Y88F): as the sequence (Q01959 whole entry Y470A) above, with Y88F, A470Y counted along it

NCCc1ccc(O)c(O)c1 [DA, dopamine]
basal fractional [3H]DA efflux compared to WT hDAT (Y470H-hDAT; at 1, 10, 20 min): elevated | total [3H]DA in the cells at the start of the efflux experiment (Y470H-hDAT; [16]): 2488 ± 150 dpm | basal DA efflux compared to WT hDAT (Y470F-hDAT [1]): no effect | total [3H]DA in the cells at the start of the efflux experiment (Y470F-hDAT [1]; [16]): 20908 ± 4209 dpm | Vmax of [3H]DA uptake (Y470A-hDAT [2]; transfected PC12 cells): 1.2 ± 0.2 pmol/min/10^5 cells | basal fractional [3H]DA efflux compared to WT hDAT (K92M-hDAT [3]; at 1 and 10 min): elevated | total [3H]DA in the cells at the start of the efflux experiment (K92M-hDAT [3]; [16]): 9655 ± 2160 dpm | Vmax of [3H]DA uptake (Y88F-hDAT [4]; [17]): 14.8 ± 3.7 pmol/min/10^5 cells | Km of [3H]DA uptake compared to WT hDAT (Y470F-hDAT [5]; transfected PC12 cells): did not alter | Vmax of [3H]DA uptake compared to WT hDAT (Y470F-hDAT [5]; transfected PC12 cells): did not alter | Vmax of [3H]DA uptake (K92M-hDAT [6]; [17]): 4.5 ± 1.7 pmol/min/10^5 cells | basal fractional [3H]DA efflux compared to WT hDAT (Y470A-hDAT [7]; at 1 and 10 min): elevated | total [3H]DA in the cells at the start of the efflux experiment (Y470A-hDAT [7]; [16]): 1158 ± 123 dpm | total [3H]DA in the cells at the start of the efflux experiment (Y88F-hDAT [8]; [16]): 41805 ± 6887 dpm

C[n+]1ccc(-c2ccccc2)cc1 [MPP^+, 1-methyl-4-phenylpyridinium]
total [3H]MPP+ in the cells at the start of the efflux experiment (Y470H-hDAT; [18]): 602 ± 28 dpm | basal MPP+ efflux compared to WT hDAT (Y470F-hDAT [1]): no effect | total [3H]MPP+ in the cells at the start of the efflux experiment (Y470F-hDAT [1]; [18]): 7399 ± 359 dpm | total [3H]MPP+ in the cells at the start of the efflux experiment (WT hDAT [9]): 12120 ± 397 dpm and 15516 ± 920 dpm | basal fractional [3H]MPP+ efflux compared to WT hDAT (K92M-hDAT [3]; at all time points): did not alter | total [3H]MPP+ in the cells at the start of the efflux experiment (K92M-hDAT [3]; [18]): 967 ± 121 dpm | basal fractional [3H]MPP+ efflux compared to WT hDAT (Y470A-hDAT [7]; at all time points): elevated | total [3H]MPP+ in the cells at the start of the efflux experiment (Y470A-hDAT [7]; [18]): 460 ± 46 dpm | basal fractional [3H]MPP+ efflux compared to WT hDAT (Y88F-hDAT [8]; at all time points): did not alter | total [3H]MPP+ in the cells at the start of the efflux experiment (Y88F-hDAT [8]; [18]): 5695 ± 450 dpm

[Cl-].[Cl-].[Zn+2] [Zn^2+, ZnCl2]
increase of [3H]WIN 35,428 binding by Zn2+ relative to control (WT hDAT [10]): 48% and 54% | effect of Zn2+ on [3H]WIN 35,428 binding (K92M-hDAT [11]): did not significantly alter | effect of Zn2+ on [3H]WIN 35,428 binding (Y470A-hDAT [12]): but not in Y470F-hDAT and Y470A-hDAT | decrease of [3H]DA uptake by Zn2+ relative to control (Y470A-hDAT [2]; ZnCl2 10 µM, CHO cells): 72% | decrease of [3H]DA uptake by Zn2+ relative to control (Y88F-hDAT [4]; ZnCl2 10 µM, CHO cells): 73% | decrease of [3H]DA uptake by Zn2+ relative to control (Y470F-hDAT [5]; ZnCl2 10 µM, CHO cells): 49% | effect of Zn2+ on [3H]WIN 35,428 binding (Y88F-hDAT [13]): did not significantly alter | decrease of [3H]DA uptake by Zn2+ relative to control (WT hDAT [14]): 47% and 48% | decrease of [3H]DA uptake by Zn2+ relative to control (K92M-hDAT [6]; ZnCl2 10 µM, CHO cells): 81% | effect of Zn2+ on [3H]WIN 35,428 binding (Y470F-hDAT [15]): but not in Y470F-hDAT and Y470A-hDAT
